Among the data in PubChem BioAssay (NCI) are TGI and GI50 values, retold here.

Assay in all cases: DTP human tumour cell line panel, 48 h
Experiment [1] concerns SF-295 CNS.
In experiment [2] the test system is OVCAR-3 ovarian.
Experiment [3] concerns MDA-MB-435.
The test system of experiment [4] is MALME-3M melanoma.
Experiment [5] relates to TK-10 renal.
In experiment [6] the test system is BT-549 breast.
Experiment [7] concerns OVCAR-4 ovarian.
In experiment [8] the test system is OVCAR-5 ovarian.
Experiment [9] deals with NCI-H23 lung.
Experiment [10] relates to SN12C renal.
Experiment [11] concerns PC-3 prostate.
Experiment [12] concerns SK-MEL-28 melanoma.
For experiment [13], the system named is NCI/ADR-RES ovarian.
The test system of experiment [14] is EKVX NSCLC.
In experiment [15] the test system is HT29 colon.
Experiment [16] concerns SNB-19 CNS.
Experiment [17] deals with RXF 393 renal.
The test system of experiment [18] is T-47D breast.
The subject of experiment [19] is HCC-2998 colon.

Several values for one entry are separate records, joined by “and”; a condition that tells them apart may be missing. Equal entries are not always repeated.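 How tested: cells in 96-well plates exposed to compound for 48 hours at five concentrations. The concentration for 50% growth inhibition is given as GI50. TGI: total growth inhibition.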 Numbered stars: 1 amine (or outer) side, 2 acyl side, 3 side chain; on linkers, the order of the positions; unused ones are H or OH. Bridge positions count the residues as written; N and C are the ends. Square brackets hold non-standard residues; d marks the D form. Peptide text beside a SMILES is read from it. I, II: the chains in the order shown. Actinocin(1to9) = Cc1c2oc3c(C)ccc(C(=O)[*:2])c3nc-2c(C(=O)[*:1])c(N)c1=O; NMeV = CN[CH](C(=O)O)C(C)C; Sar = CNCC(=O)O

Broadly, the TGI is the concentration at which net growth stops. A high value points to less potent growth arrest. Consider `OCC1(CNc2cc(Cl)ncn2)CCC1`, for which the TGI in experiment [1], in experiment [2], in experiment [3], in experiment [4], in [5] and in [6] was over 100 µM in each case. Moreover, the total growth inhibition concentration (TGI) in experiment [7], in [8], in [9], in [10], in [11] and in experiment [12] was over 100 µM in each case. Besides, the TGI in experiment [13], in experiment [14] and in experiment [15] was over 100 µM throughout.

Turning to `CN1C(=O)C(O)C[C@@H]1c1ccc(F)cc1` (some centres not stated), the TGI in experiment [1], in [2], in [3], in [5], in experiment [6] and in experiment [7] was over 100 µM each time. Also, the TGI in experiment [8], in [16], in experiment [9], in experiment [10], in experiment [11] and in [17] was over 100 µM throughout. For the same compound, the TGI in experiment [12], in experiment [18], in [14], in experiment [15] and in experiment [19] was over 100 µM throughout.

For orientation: GI50 means the concentration at which growth is held to half of that of the control. Regarding `CCC(C)C1NC(=O)C(NC(=O)c2c3nc4c(C(=O)NC5C(=O)NC(C(C)C)C(=O)N6CCCC6C(=O)N(C)CC(=O)N(C)C(C(C)C)C(=O)OC5C)ccc(C)c4oc-3c(C)c(=O)c2N)C(C)OC(=O)C(C(C)C)N(C)C(=O)CN(C)C(=O)C2CCCN2C1=O` (configuration not stated) (I: TIP[Sar][NMeV] / II: TVP[Sar][NMeV]; ester I:1-I:C, II:1-II:C; linker I:N-II:N via Actinocin(1to9); configuration not given here), the TGI in [3] amounted to 0.0302 µM; in experiment [4], 0.028 µM; in experiment [5], 17.9 µM; in [6], 0.0627 µM; in experiment [7], 0.739 µM; in experiment [8], 0.0132 µM. The TGI in [16] is 1.23 µM; in experiment [9], 0.0553 µM and 0.0126 µM; in experiment [10], 0.498 µM; in [11] it was 0.0947 µM and 0.0301 µM; in [17] it was 0.0102 µM; in [12] it was 0.0409 µM. The TGI in [13] was 3.56 µM; in experiment [14] it was 0.179 µM and 0.0919 µM. Further, the GI50 in experiment [13] is 0.0239 µM.

`N#C/C=C\c1ccc(-c2cc(C(F)(F)F)cc(C(F)(F)F)c2)o1`: the TGI in experiment [1] was 46 µM; in experiment [2] it was over 100 µM; in experiment [3] it was 18.5 µM; in experiment [4], over 100 µM; in experiment [6], 76.8 µM; in experiment [7], over 100 µM. Also, the TGI in experiment [8] is over 100 µM; in experiment [16] it was over 100 µM; in experiment [9] it was 30.1 µM; in experiment [10] it was over 100 µM; in experiment [11] it was over 100 µM; in experiment [17], over 100 µM. For the same compound, the TGI in experiment [12], in experiment [13], in [14], in experiment [15] and in experiment [19] was over 100 µM in each case.

Regarding `O=C1Cc2c([nH]c3cc(Br)ccc23)-c2ccccc2N1`, the TGI is 61.3 µM in experiment [1]; 83.4 µM in experiment [2]; over 100 µM in [3]; 48.1 µM in experiment [4]; 87.3 µM in experiment [5]; 46.9 µM in experiment [6]. Besides, the TGI in experiment [7] is 38.2 µM; in [8], 52.7 µM; in experiment [16], 58 µM; in [9], over 100 µM; in experiment [10], 76.4 µM; in experiment [11], 44.3 µM. Also, the TGI in [17] was 12.2 µM; in [12] it was over 100 µM; in [18] it was 84.1 µM; in [15] it was 37.2 µM.

Take `CCOC(=O)C(C(=O)OCC)C(NC(=O)Nc1cc(C(F)(F)F)ccc1OC)(C(F)(F)F)C(F)(F)F`: the TGI in experiment [1] was 84.8 µM; in [2] it was 54.3 µM; in experiment [3], 43.8 µM; in [4], 51.2 µM; in experiment [5] it was over 100 µM; in [7], 98.6 µM. In addition, the TGI in experiment [8] is over 100 µM; in [16], over 100 µM; in experiment [9] it was 85.6 µM; in experiment [10], 74.2 µM; in experiment [11], over 100 µM; in [17], 62.3 µM. The TGI in [12] is over 100 µM; in experiment [13] it was 75.9 µM; in experiment [18], over 100 µM; in [14], over 100 µM; in experiment [15] it was 92.1 µM; in experiment [19] it was 85 µM.

As to `Cc1cccc2c(=O)c3c(O)cc4c(c3n(C)c12)C=CC(C)(C)O4`, the TGI in experiment [1], in experiment [2], in experiment [3], in experiment [4], in experiment [5] and in experiment [6] was over 100 µM in each case. Besides, the TGI in experiment [7], in experiment [8], in experiment [16], in [9], in experiment [10] and in experiment [11] was over 100 µM throughout. The TGI was 38 µM in experiment [17]; over 100 µM in [12]; over 100 µM in [13]; over 100 µM in [14]; 36.8 µM in experiment [15]; over 100 µM in experiment [19].

As for `Cc1cc2nc3c(C#N)c4c(c(Nc5ccc(Cl)cc5)n3c2cc1C)CCC4`, the TGI in [1] was over 100 µM; in [2], 35.4 µM; in experiment [3], over 100 µM; in experiment [4], 55 µM; in experiment [5], 40.9 µM; in experiment [6] it was 44.8 µM. Besides, the TGI is over 100 µM in experiment [7]; 36.3 µM in [8]; 57.2 µM in [9]; 34.4 µM in experiment [10]; 33.8 µM in [17]; 47.2 µM in experiment [12]. The TGI in experiment [13] was 48.1 µM; in experiment [18], 86.3 µM; in experiment [14] it was over 100 µM; in [15], 32 µM.
